# Values quoted from earlier work in patent US20110052647A1, “Antidepressant Oral Pharmaceutical Compositions” (priority 2005, published 2011).
# Key:
# [1] = oral administration of capsules containing enteric-coated pellets
# [2] = test system: dopaminergic, adrenergic, cholinergic or histaminergic receptors; details: in vitro
# [3] = not given; remark: listed apart in the source
smiles,measurement,setting,value
"CNCC[C@H](Oc1cccc2ccccc12)c1cccs1 [Duloxetine, (S)-N-methyl-3-(1-naphthyloxy)-3-(2-thienyl)propan-1-amine]",dosage hydrolyzed to 1-naphthol,"pH of 1.0, within one hour",50%
same,dosage degrades to 1-Naphthol,"pH of 2.0, in one hour",10%
same,time for 10% degradation,pH of 4.0,up to 63 hours
same,mean plasma elimination half-life,[1],12.1 h
same,median time to maximum concentration (Tmax),[1],6 h
same,"affinity for dopaminergic, adrenergic, cholinergic or histaminergic receptors",[2],no significant affinity
same,inhibition of monoamine oxidase (MAO),monoamine oxidase (MAO),does not inhibit
same,pH values at which unstable in solution,[3],less than 2.5
